The subject of assay [1] is contraction of the aorta strip caused by norepinephrine (NE). Put plainly: Vasodilating action: inhibition of contraction of rabbit aorta strip caused by norepinephrine (NE). Conditions: Oryctolagus cuniculus, compound 10^-5 M, NE 10^-6 M, 15 min pretreatment, read-out: Inhibitory percent against contraction, NE. In kind it is cell-based. Here is the method:
(§1) A spiral strip of aorta of a rabbit (2-3 mm width, about 3 cm length) was allowed to equilibrate by hanging under 2 g force in a Krebs-Henseleit solution. The solution was saturated with a mixture gas of 97% O2 --3% CO2 which was warmed to 37° C. Inhibitory actions of compounds (10^-5 M) of this invention against contraction of the aorta strip caused by KCl (60 mM), norepinephrine (NE) (10^-6 M) or serotonin (5--HT) (10^-6 M), by treating the strip with a compound of this invention 15 minutes before the test, are shown in Table 1 as inhibitory percent.

The test system of assay [2] is contraction of the aorta strip caused by KCl. Put plainly: Vasodilating action: inhibition of contraction of rabbit aorta strip caused by KCl. The assay is classed as cell-based. Conditions: Oryctolagus cuniculus, compound 10^-5 M, KCl 60 mM, 15 min pretreatment, read-out: Inhibitory percent against contraction, KCl. Here is the method:
as §1

Assay [3] has as its system spontaneously hypertensive rats. The assay can be described thus: Antihypertensive action in spontaneously hypertensive rats (tail-cuff). The assay is classed as in vivo. The settings on record: 1 h after administration. The procedure:
Male 12 to 13 weeks old spontaneously hypertensive rats with about 200 mm Hg of blood pressure were used in groups of 3 individuals. Mean arterial blood pressures of these animals were measured by the tail-cuff method, then the animals were orally given 3-60 mg/kg of each test compound of this invention as 2 ml of its suspension in gum arabic. Blood pressure measurements were made again one hour after administration of each test compound.

Assay [4] concerns contraction of the aorta strip caused by serotonin (5--HT). The assay can be described thus: Vasodilating action: inhibition of contraction of rabbit aorta strip caused by serotonin (5-HT). The assay is classed as cell-based. Conditions: Oryctolagus cuniculus, compound 10^-5 M, 5-HT 10^-6 M, 15 min pretreatment, read-out: Inhibitory percent against contraction, 5-HT. Here is the method:
as §1

Where a name gives a salt, the structure may show the parent alone. Read-outs that look alike come from different tables or passages of the source.

For the molecule `O=C1Nc2ccccc2SC1CCCN1CCN(c2ccc(F)cc2)CC1` (stereo not shown) [Example 3], the figures for the inhibition at 10 µM in assay [1] and in assay [2] were 100% and 53%, respectively.

Take `Cc1ccc(N2CCN(CCCC3Sc4cccc(C)c4NC3=O)CC2)cc1` (stereo not shown) [Example 7]: the values for the inhibition at 10 µM in assay [1] and in assay [2] were 60% and 77%, respectively.

In the case of `O=C1Nc2cc3c(cc2SC1CCCN1CCN(c2ccc(F)cc2)CC1)OCO3` (stereo not shown) [Example 45, 6-[3-[4-(4-fluorophenyl)-1-piperazinyl]propyl]-6H-1,3-dioxolo[4,5-g][1,4]benzothiazin-7(8H)-one.dihydrochloride], the “Antihypertensive effect (difference of blood pressure before and after medication)” value in assay [3] (30 mg/Kg oral) is recorded as 30 ΔmmHg.

As for `O=C1Nc2cc(C(F)(F)F)ccc2SC1CCCN1CCN(c2ccc(F)cc2)CC1` (stereo not shown) [Example 10], in assay [3] (30 mg/Kg oral), the “Antihypertensive effect (difference of blood pressure before and after medication)” value is reported as 33 ΔmmHg. The inhibition at 10 µM came out at 100% in assay [1] and 45% in assay [2].

For the molecule `Cc1ccccc1N1CCN(CCCC2Sc3cccc(C)c3NC2=O)CC1` (stereo not shown) [Example 17], in assay [3] (30 mg/Kg oral), the “Antihypertensive effect (difference of blood pressure before and after medication)” value was 26 ΔmmHg. Further, the inhibition at 10 µM in assay [1] stood at 100%; in assay [2], 11%.

In the case of `Cc1cccc2c1NC(=O)C(CCCN1CCN(c3ccccc3)CC1)S2` (stereo not shown) [Example 13], the inhibition at 10 µM in assay [4] was 92%; in assay [1], 100%; in assay [2] it was 40%. Further, the “Antihypertensive effect (difference of blood pressure before and after medication)” value in assay [3] (60 mg/Kg oral) is 36 ΔmmHg.

Turning to `COc1ccccc1N1CCN(CCC2Sc3ccccc3NC2=O)CC1` (stereo not shown) [Example 28], the inhibition at 10 µM in assay [4] turned out to be 100%; in assay [1], 100%; in assay [2] it was 15%. Moreover, the “Antihypertensive effect (difference of blood pressure before and after medication)” value in assay [3] (30 mg/Kg oral) was 29 ΔmmHg.

As for `COc1ccccc1N1CCN(CCC2Sc3ccccc3N(C)C2=O)CC1` (stereo not shown) [Example 32], the inhibition at 10 µM in assay [4] amounted to 88%; in assay [1] it was 100%. Besides, the “Antihypertensive effect (difference of blood pressure before and after medication)” value in assay [3] (60 mg/Kg oral) was 30 ΔmmHg.

On to `Cc1cccc(N2CCN(CCCC3Sc4cccc(C)c4NC3=O)CC2)c1` (stereo not shown) [Example 18], for which the inhibition at 10 µM in assay [1] came out at 100%; in assay [2] it was 50%.

Take `COc1cccc2c1NC(=O)C(CCCN1CCN(c3ccccc3)CC1)S2` (stereo not shown) [Example 24]: the inhibition at 10 µM in assay [4] was 66%; in assay [1], 100%; in assay [2], 20%.

As to `Cc1cccc2c1NC(=O)C(CCCN1CCN(c3cccc(C(F)(F)F)c3)CC1)S2` (stereo not shown) [Example 19], the inhibition at 10 µM was 100% in assay [1] and 55% in assay [2].

Consider `COc1ccc2c(c1)SC(CCCN1CCN(c3ccccc3)CC1)C(=O)N2` (stereo not shown) [Example 5], for which the figures for the inhibition at 10 µM in assay [4], in assay [1] and in assay [2] were 100%, 100% and 10%, respectively. The “Antihypertensive effect (difference of blood pressure before and after medication)” value in assay [3] (10 mg/Kg oral) is 49 ΔmmHg.

Consider `CCc1cccc2c1NC(=O)C(CCCN1CCN(c3ccc(F)cc3)CC1)S2` (stereo not shown) [Example 41], for which the “Antihypertensive effect (difference of blood pressure before and after medication)” value in assay [3] (30 mg/Kg oral) is recorded as 23 ΔmmHg.

For `COc1ccccc1N1CCN(CCCC2Sc3cccc(OC)c3NC2=O)CC1` (stereo not shown) [Example 4], the inhibition at 10 µM amounted to 12% in assay [4], 100% in assay [1] and 18% in assay [2].

`O=C1Nc2ccccc2SC1CCCN1CCN(c2ccccc2)CC1` (stereo not shown) [Example 2]: the inhibition at 10 µM in assay [4] is 97%; in assay [1] it was 100%; in assay [2], 70%. Also, the “Antihypertensive effect (difference of blood pressure before and after medication)” value in assay [3] (30 mg/Kg oral) is 43 ΔmmHg.

With `COc1ccc2c(c1)SC(CCN1CCN(c3ccccc3)CC1)C(=O)N2` (stereo not shown) [Example 29], the inhibition at 10 µM worked out at 73% in assay [4], 96% in assay [1] and 15% in assay [2]. Further, the “Antihypertensive effect (difference of blood pressure before and after medication)” value in assay [3] (10 mg/Kg oral) is listed as 38 ΔmmHg.

For `COc1ccccc1N1CCN(CCCC2Sc3ccccc3NC2=O)CC1` (stereo not shown) [Example 25, 2-[3-[4-(2-methoxyphenyl)-1-piperazinyl]propyl]-2H-1,4-benzothiazin-3(4H)-one], the inhibition at 10 µM stood at 84% in assay [4], 100% in assay [1] (0.25 h) and 10% in assay [2]. For the same molecule, in assay [3] (30 mg/Kg oral), the “Antihypertensive effect (difference of blood pressure before and after medication)” value is on record as 66 ΔmmHg.

`COc1ccccc1N1CCN(CCCC2Sc3cc(Cl)ccc3NC2=O)CC1` (stereo not shown) [Example 9]: the values for the inhibition at 10 µM in assay [4], in assay [1] and in assay [2] were 44%, 100% and 40%, respectively. Moreover, in assay [3] (60 mg/Kg oral), the “Antihypertensive effect (difference of blood pressure before and after medication)” value is reported as 35 ΔmmHg.

With `O=C1Nc2ccccc2SC1CCN1CCN(c2ccccc2)CC1` (stereo not shown) [Example 27], the inhibition at 10 µM was determined as 100% in assay [4], 100% in assay [1] and 20% in assay [2].

Consider `Cc1ccc2c(c1C)NC(=O)C(CCCN1CCN(c3ccc(F)cc3)CC1)S2` (stereo not shown) [Example 42], for which the “Antihypertensive effect (difference of blood pressure before and after medication)” value in assay [3] (30 mg/Kg oral) is on record as 28 ΔmmHg.

Take `COc1ccccc1N1CCN(CCCC2Sc3cc(C)c(C)cc3NC2=O)CC1` (stereo not shown) [Example 23]: the “Antihypertensive effect (difference of blood pressure before and after medication)” value in assay [3] (30 mg/Kg oral) is listed as 48 ΔmmHg. Besides, the values for the inhibition at 10 µM in assay [1] and in assay [2] were 100% and 40%, respectively.

As to `O=C1Nc2ccccc2SC1CCCCN1CCN(c2ccc(F)cc2)CC1` (stereo not shown) [Example 38, 2-[4-[4-(4-fluorophenyl)-1-piperazinyl]butyl]-2H-1,4-benzothiazin-3(4H)-one], the “Antihypertensive effect (difference of blood pressure before and after medication)” value in assay [3] (30 mg/Kg oral) is listed as 32 ΔmmHg. Besides, the inhibition at 10 µM in assay [1] (0.25 h) stood at 100%; in assay [2] it was 30%.

Consider `O=C1Nc2ccccc2SC1CCN1CCN(c2ccc(F)cc2)CC1` (stereo not shown) [Example 26], for which the “Antihypertensive effect (difference of blood pressure before and after medication)” value in assay [3] (30 mg/Kg oral) was 26 ΔmmHg. Moreover, the inhibition at 10 µM in assay [1] (0.25 h) and in assay [2] was 60% in each case.

Turning to `CCN1C(=O)C(CCN2CCN(c3ccccc3OC)CC2)Sc2ccccc21` (stereo not shown) [Example 36, 4-ethyl-2-[2-[4-(2-methoxyphenyl)-1-piperazinyl]ethyl]-2H-1,4-benzothiazin-3(4H)-one], the inhibition at 10 µM in assay [4] was 100%; in assay [1] (0.25 h) it was 100%; in assay [2], 15%.

In the case of `COc1ccccc1N1CCN(CCCC2Sc3cccc(C)c3NC2=O)CC1` (stereo not shown) [Example 16], the inhibition at 10 µM in assay [4] is 70%; in assay [1], 100%; in assay [2], 33%.

Regarding `COc1ccccc1N1CCN(CCCC2Sc3ccc(Cl)cc3NC2=O)CC1` (stereo not shown) [Example 8], the results for the inhibition at 10 µM in assay [4], in assay [1] and in assay [2] were 18%, 100% and 34%, respectively.

With `O=C1Nc2c(ccc3c2CCCC3)SC1CCCN1CCN(c2ccc(F)cc2)CC1` (stereo not shown) [Example 47, 3-[3-[4-(4-fluorophenyl)-1-piperazinyl]propyl]-7,8,9,10-tetrahydro-1H-naphtho[2,1-b][1,4]thiazin-2(3H)-one.hydrochloride], in assay [3] (30 mg/Kg oral), the “Antihypertensive effect (difference of blood pressure before and after medication)” value is reported as 35 ΔmmHg.

On to `COc1ccccc1N1CCN(CCCC2Sc3cc(C)ccc3NC2=O)CC1` (stereo not shown) [Example 21], for which the values for the inhibition at 10 µM in assay [4], in assay [1] and in assay [2] were 56%, 100% and 32%, respectively.

Regarding `CN1C(=O)C(CCN2CCN(c3ccccc3)CC2)Sc2ccccc21` (stereo not shown) [Example 31], the inhibition at 10 µM in assay [4] was determined as 62%; in assay [1], 100%; in assay [2], 40%.

(Values after patent US4640916A, “1,4-benzothiazine derivatives, compositions containing them and method of use” (priority 1984, dated 1987).)
